The source of these data is BindingDB's records for doi:10.1016/s0960-894x(98)00290-x (3-Dimensional Pharmaceuticals, 1999).

Broadly, the Ki is the dissociation constant of the complex between target and ligand, obtained from inhibition or displacement. Low values mean higher affinity, high ones lower affinity.

The nature of assay [1]: Compound was tested in vitro for its ability to inhibit serine protease trypsin using benzoyl-Phe-Val-Arg-p-nitroanilide as substrate.
The nature of assay [2]: Compound was tested in vitro for its ability to inhibit serine protease chymotrypsin using suc-Ala-Ala-Pro-Phe-p-nitroanilide as substrate.

Bounds are passed on as bounds.

Take `Cc1cc(OCCCNC(=N)N)cc(OS(=O)(=O)c2ccccc2Cl)c1` [2-Chloro-benzenesulfonic acid 3-(3-guanidino-propoxy)-5-methyl-phenyl ester]: the inhibitory constant (Ki) in assay [1] was 23 µM; in assay [2], more than 200 µM.
